This note sets out measurements from patent EP4745145A1, “SALT OF THIAZOLOPYRAZINE COMPOUND OR CRYSTAL THEREOF AND USE THEREOF” (Simcere Zaiming Pharmaceutical Co., Ltd., priority 2023, dated 2025).

Where only a bound is given, the exact number is not on record here.

The target of one test is T1, POLQ (Homo sapiens, UniProt O75417).
T1 construct: the N-terminal active peptide segment of POLQ with ATPase activity (M1-N899) is co-incubated with the compound; purchased Pharmaron
In words: POLQ enzyme activity inhibition experiment (ATPase, NADH-coupled). It counts as biochemical. On the procedure: Brief introduction to experimental principle: After the N-terminal active peptide segment of POLQ with ATPase activity (M1-N899) is co-incubated with the compound, this peptide segment reacts with substrate dT50 under the action of ATP to generate ADP. The generated ADP then participates in the subsequent NADH oxidation-coupled enzymatic reaction, catalyzing the conversion of NADH to NAD^+. The reduction in the OD value of NADH at 340 nm was measured using the Envision microplate reader from Perkin Elmer to reflect enzyme activity.
Experimental methods: The POLQ enzyme was diluted to 100 nM with a reaction buffer (20 mM Tris HCl (pH 7.80), 80 mM KCl, 10 mM MgCl2, 1 mM DTT, 0.01% w/v bovine serum albumin, 0.01% v/v Tween-20, 5% v/v glycerol). The test compound was diluted to different concentrations with dimethyl sulfoxide (DMSO) using the Echo 650 pipetting system and transferred to a 384-well plate, 20 µL/well of 100 nM POLQ was added, and the mixture was incubated at room temperature for 15 min. […] After the 384-well plate was reacted at room temperature for 20 min, the OD value at 340 nm was read using an Envision microplate reader.
Inhibition rates were calculated and fitted using XLfit software to give the IC50 of the compound. […]

The test system of test [1] is POLQ-mediated MMEJ pathway. As to the kind of experiment: Inhibition of cellular MMEJ pathway (NanoLuciferase reporter in HEK293T cells). It is filed as cell-based. As to conditions: 24 h. As for the experimental part: Brief introduction to experimental principle: POLQ is a key protein in the repair process of cellular MMEJ. The NanoLuciferase MMEJ repair reporter system was transferred into HEK293T cells. When the MMEJ repair pathway was normally performed in the cells, the NanoLuciferase reporter protein was correctly expressed, and the cell luminescence signal could be detected. The decrease in cell luminescence was measured using a BMG multifunctional microplate reader from BMG LABTECH to reflect the inhibition of the compound on the cellular MMEJ pathway.
Experimental methods: The test compound was diluted to different concentrations with dimethyl sulfoxide (DMSO) using an Echo 655 pipetting system and transferred to a 384-well plate. In the reaction system, the compound was serially diluted 3-fold from the final concentration of 10 µM. The final concentration of DMSO was 0.1%. HEK293T cells were collected, an MMEJ luciferase […] was transferred to the cells using a Neon transfection system, and the transfected HEK293T cells at 4000 cells/well were diluted with a DMEM medium containing 10% FBS and added to a 384-well plate (25 µL/well).
The compound inhibition rate was calculated and fitted using XLfit software to give the IC50 of the compounds. A Blank well and a DMSO well were set in the experiment.
A general note: Reporter assays use an easily measured gene product as a stand-in for the process of interest.

T1 sequence (O75417 1-899): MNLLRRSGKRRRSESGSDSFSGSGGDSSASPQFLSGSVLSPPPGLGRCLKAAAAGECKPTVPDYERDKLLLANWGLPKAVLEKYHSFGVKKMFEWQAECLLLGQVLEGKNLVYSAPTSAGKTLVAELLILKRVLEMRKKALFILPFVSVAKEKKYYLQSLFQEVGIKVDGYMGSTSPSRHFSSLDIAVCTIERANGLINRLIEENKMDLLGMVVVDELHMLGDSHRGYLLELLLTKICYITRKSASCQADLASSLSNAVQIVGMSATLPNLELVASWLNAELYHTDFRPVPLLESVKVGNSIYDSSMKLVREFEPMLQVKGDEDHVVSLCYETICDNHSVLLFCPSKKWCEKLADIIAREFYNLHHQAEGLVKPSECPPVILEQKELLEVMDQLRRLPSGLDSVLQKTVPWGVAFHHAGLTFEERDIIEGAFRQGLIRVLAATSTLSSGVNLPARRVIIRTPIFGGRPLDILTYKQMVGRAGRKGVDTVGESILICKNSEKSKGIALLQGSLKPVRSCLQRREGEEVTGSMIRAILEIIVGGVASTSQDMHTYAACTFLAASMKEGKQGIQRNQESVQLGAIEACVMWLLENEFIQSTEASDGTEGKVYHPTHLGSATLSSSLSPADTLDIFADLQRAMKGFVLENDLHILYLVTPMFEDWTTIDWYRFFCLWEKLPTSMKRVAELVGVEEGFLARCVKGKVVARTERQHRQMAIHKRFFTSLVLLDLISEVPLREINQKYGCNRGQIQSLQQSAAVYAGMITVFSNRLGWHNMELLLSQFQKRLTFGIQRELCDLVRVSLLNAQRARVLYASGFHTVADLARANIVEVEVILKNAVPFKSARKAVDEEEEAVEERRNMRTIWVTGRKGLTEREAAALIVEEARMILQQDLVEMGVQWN

For the compound `COc1ccc(Cl)cc1-c1cc(C)ncc1C(=O)Nc1nc2ncc(-c3ccc(C#N)cc3)nc2s1` [Compound of formula I, 4-(5-chloro-2-methoxyphenyl)-N-[6-(4-cyanophenyl)thiazolo[4,5-b]pyrazin-2-yl]-6-methylnicotinamide], the IC50 at POLQ is under 100 nM. Besides, in test [1], the “inhibitory activity on the POLQ-mediated MMEJ pathway in cells” value was “strong inhibitory activity”.

What is called IC50 is the midpoint of a concentration-inhibition curve. A higher IC50 goes with lower potency.
